Like-named read-outs stand apart in the source and are kept apart here.
How the values were obtained:
[1] = target: human norovirus Sydney 2012 RdRp (Norovirus GII.4 (Norwalk virus, human norovirus), UniProt K4L8Z7); test: Fluorescent de novo RdRp activity assay (PicoGreen, poly(C) template); type: biochemical; conditions: for inhibition at 100 µM: read-out: inhibition of human norovirus RdRp activity, 100 µM
Experimental: The 62 compounds identified in silico were screened for inhibition of norovirus RdRp activity using an in vitro fluorescent, de novo RdRp assay. Compounds were tested at fixed concentrations of 10 µM and 100 µM, and compared to mock treated samples containing the vehicle only (0.5% DMSO [vol/vol]) (Fig. 4A,B). […] For certain compounds, significant insolubility was observed, coupled with either inherent fluorescence quenching (positive y-axis values on Fig. 4A,B) or enhancement of the fluorescence signal (negative y-axis values).
The newly synthesised compounds, including the re-prepared hit 13 and some synthesis intermediates (Table 1), were initially evaluated on norovirus Sydney 2012 RdRp activity in vitro using a quantitative fluorescent assay. Compounds were tested at a fixed concentration of 10 μM and compared to the relative activity of mock treated samples.
Recombinant calicivirus RdRps (GenBank accession numbers) norovirus GII.Pe/GII.4 Sydney 2012 (KT239579), MNV GV CW1 (DQ285629), RHDV Czech V351 (KF594473.1), and SaV GI.1 Mc114 (AY237422) were expressed and purified as described previously[60],[61]. RdRp resistance mutants were generated using the QuikChange site-directed mutagenesis kit (Agilent Technologies, Santa Clara, CA, USA) and confirmed by Sanger sequencing.
(§1) Fluorescent RdRp activity assays were carried out as previously described[14],[62]. Briefly, RdRp activity was quantified by monitoring the formation of double-stranded RNA (dsRNA) from a single stranded homopolymeric template, poly(C) (Sigma Aldrich, St Louis, MO, USA), using the fluorescent dye PicoGreen (Life Technologies, Carlsbad, CA, USA). RdRp assays were performed in 384-well plates, and each reaction mixture contained 400 ng enzyme, 45 µM GTP, 10 ng/µL poly(C) RNA, 2.5 mM MnCl2, 5 mM dithiothreitol, (DTT), 0.01% bovine serum albumin (BSA), and 0.005% Tween 20 in 20 mM Tris-HCl, pH 7.5, with a final reaction volume of 25 µL. The previous published norovirus NNI NIC02 was used as a positive control. RdRps were incubated for 10 mins at 30 °C in the presence of the test compounds or the compound vehicle DMSO (0.5% vol/vol) before addition into the reaction mixture, which was then allowed to run 15 min at 30 °C then terminated with 10 mM EDTA, followed by PicoGreen staining and dsRNA quantitation. GraphPad Prism V6.05 (La Jolla, CA, USA) was used to plot the IC50 values. In cases where fluorescent enhancement was recorded for a compound instead of inhibition, a secondary gel-based polymerase activity assay was used as a counter-screen as described below, to exclude the possibility of RdRp activity enhancement (Supplementary Fig. S1). Primed elongation activity was examined in a gel-based assay as previously described[16],[63] using the RNA template (PE44-NoV, Fig. 4D). Gels were imaged using BioRad (Hercules, CA, U.SA) Geldoc Universal Hood II, running BioRad Image Lab software, V4.1, build 16. Antagonism was calculated using Compusyn software V1.0[59]. 54 and PPNDS (4:1 ratio) were tested alone and together against norovirus Sydney 2012 RdRp.

[2] = Observed compound solubility; type: physicochemical; conditions: assay conditions / 100% DMSO
Experimental: Therefore, they were counter-screened at 100 µM in a secondary gel-based assay (Supplementary Fig. S1).
To confirm RdRp inhibition and to exclude any potential false positives from the first fluorescence RdRp assay, the eight selected compounds (Fig. 4C) were then assessed using a gel-shift enzyme activity assay.
Dose-dependent inhibitory response curves were used to establish IC50 values for the five test compounds (Table 2). […] Therefore, 42b was too insoluble to attain a reliable confidence interval in the dose-response experiments and was not examined further. However, from the other four compounds, hit 11 and its phenyl derivative 54 gave the lowest IC50 values, 3–5 fold improved compared with 13 and its derivative 42a, confirming increased RdRp inhibitory activity associated with this scaffold.

[3] = test system: norovirus RdRp; test: Counter-screen gel-shift RdRp assay (primed elongation of PE44-NoV template); type: biochemical, human norovirus; conditions: for RdRp activity enhancement in gel-based counter-screen: 100 µM; for inhibition of primed elongation activity (gel-shift): fixed concentration of 100 µM
Experimental: In this assay, a 32 nucleotide RNA template (PE44-NoV) is extended to 44 nucleotides in the presence of an active RdRp[16]. […] Inhibition of primed elongation of the PE44-NoV template was examined at a fixed concentration of 100 µM (Fig. 4D). In the absence of inhibition (0.5% DMSO vehicle only) the RNA template was extended to 44 nucleotides (Fig. 4D), evidenced by an upward gel shift and the appearance of the second, higher band.
as §1

[4] = test system: MNV; test: MNV plaque reduction assay in cell culture; type: cell-based, murine norovirus
Experimental: As mentioned above, the only robust cellular assay available for the evaluation of potential norovirus inhibitors is the closely related MNV assay. […] Consequently, 54 was further assessed to determine the IC50 value against MNV RdRp activity using an in vitro fluorescent assay. […] 54 was then assessed for cytotoxicity against RAW264.7 mouse macrophage cells using a cell viability assay. […] Using the plaque reduction assay, the inhibitory effects of 54 (0.5–50 µM) were examined against MNV plaque formation in cell culture. […] Compound solubility and its cell-membrane permeability properties could be further improved with structure-activity relationship enhancement of the 54 scaffold to facilitate cellular uptake, and therefore to increase antiviral efficacy. Work on this aspect is ongoing, and it will be reported in due course.
MNV-1 (CW1) culture assays were performed as previously described. Replication was examined using plaque assays[58],[64],[65]. Cytotoxicity was examined using a CellTitre Blue (Promega, Madison, WI, USA) viability assay as described previously.

[5] = target: T1, MNV RdRp (Norovirus, UniProt Q80J95); test: Fluorescent RdRp activity assay, MNV RdRp; type: biochemical, murine norovirus; conditions: fixed concentration of 100 µM
T1 construct: made in house
From the text: The antiviral activity of the four compounds (11, 13, 42a and 54) were examined for inhibition of RNA polymerases from other viruses spanning three genera of the Caliciviridae family, including Norovirus (human norovirus and MNV), Lagovirus (rabbit haemorrhagic disease virus [RHDV]) and Sapovirus (human sapovirus). […] The protein sequence of the examined calicivirus polymerases has an identity range between 30.2–61.4%, and therefore the broad-spectrum activity of these compounds could be attributed to a common, highly-conserved binding pocket across the RdRps, as has been previously reported with broad-spectrum activity of other site-B binding NNIs[16]. Moreover, the ability of each compound to inhibit the different RdRps in a similar range could be further confirmation of targeting a well-conserved binding site of the Caliciviridae family.
Recombinant calicivirus RdRps (GenBank accession numbers) norovirus GII.Pe/GII.4 Sydney 2012 (KT239579), MNV GV CW1 (DQ285629), RHDV Czech V351 (KF594473.1), and SaV GI.1 Mc114 (AY237422) were expressed and purified as described previously[60],[61]. […]
Fluorescent RdRp activity assays were carried out as previously described[14],[62]. Briefly, RdRp activity was quantified by monitoring the formation of double-stranded RNA (dsRNA) from a single stranded homopolymeric template, poly(C) (Sigma Aldrich, St Louis, MO, USA), using the fluorescent dye PicoGreen (Life Technologies, Carlsbad, CA, USA). […] RdRps were incubated for 10 mins at 30 °C in the presence of the test compounds or the compound vehicle DMSO (0.5% vol/vol) before addition into the reaction mixture, which was then allowed to run 15 min at 30 °C then terminated with 10 mM EDTA, followed by PicoGreen staining and dsRNA quantitation. […] In cases where fluorescent enhancement was recorded for a compound instead of inhibition, a secondary gel-based polymerase activity assay was used as a counter-screen as described below, to exclude the possibility of RdRp activity enhancement (Supplementary Fig. S1). […] Antagonism was calculated using Compusyn software V1.0[59]. […]

[6] = 10 µM, secondary screen of newly synthesised compounds
[7] = 100 µM, initial screen of purchased compounds
[8] = read-out: inhibition of norovirus Sydney 2012 RdRp activity, 10 µM, secondary screen of newly synthesised compounds
[9] = read-out: inhibition of human norovirus RdRp activity, 10 µM, initial screen of purchased compounds
[10] = initial screen of purchased compounds
[11] = 10 µM, initial screen of purchased compounds

O=C(CN1C(=O)S/C(=C\c2ccc(-c3ccccc3)o2)C1=O)N1CCCCC1 [Compound 24a]
inhibition of norovirus Sydney 2012 RdRp activity [1, 6]: loss of inhibitory activity

O=C(Nc1ccc(O)c(-c2nc3ccccc3o2)c1)c1cccnc1 [AP-970/12851847]
solubility (observation) [2]: insolubility
inhibition of human norovirus RdRp activity [1, 7]: apparent RdRp enhancement
RdRp activity enhancement in gel-based counter-screen [3]: not seen in the gel-based assay

Cc1ccccc1-c1ccc(/C=C2\SC(=O)N(CC(=O)N3CCOCC3)C2=O)o1 [Compound 23c]
inhibition of norovirus Sydney 2012 RdRp activity [1, 6]: complete loss of activity

O=C(O)c1ccc(-c2ccc(/C=C3\SC(=O)N(CC(=O)N4CCOCC4)C3=O)o2)cc1 [Compound 28]
inhibition at 10 µM [1, 8]: ~50%

O=C(O)c1ccccc1-c1ccccc1C(=O)Nc1cccc(O)c1 [Compound 6]
inhibition at 10 µM [1, 9]: > 25%
inhibition at 100 µM [1, 10]: > 50%

CCC(O)CC(C(=O)NNc1ccccc1)C(=O)NNc1ccccc1 (stereo not shown) [AE-562/12222591]
solubility (observation) [2]: precipitated heavily in 100% DMSO
inhibition of human norovirus RdRp activity [1, 11]: over 25%
inhibition of human norovirus RdRp activity [1, 7]: over 25%

COC(=O)c1ccc(-c2ccc(/C=C3\SC(=O)N(CC(=O)N4CCCCC4)C3=O)o2)c(C)c1 [Compound 24d]
inhibition at 10 µM [1, 8]: 25%

Cc1ccc(N2NC(=O)C(=Cc3ccc(-c4ccc(S(=O)(=O)Nc5nccs5)cc4)o3)C2=O)cc1 [Compound 11]
IC50 [1]: 5 µM
inhibition at 10 µM [1, 9]: > 25%
inhibition at 100 µM [1, 10]: > 50%
inhibition at 10 µM ([4]; 10 µM, read-out: inhibition of MNV plaque formation): 37.1%
cytotoxicity seen in plaque assay ([4]; 100 µM): cytotoxic
inhibition of primed elongation activity (gel-shift) [3]: complete inhibition

O=C(O)c1ccc2nc(-c3cccc(-c4nc5ccc(C(=O)O)cc5[nH]4)c3)[nH]c2c1 [AJ-077/33270018]
solubility (observation) [2]: insolubility
inhibition of human norovirus RdRp activity [1, 7]: apparent RdRp enhancement
RdRp activity enhancement in gel-based counter-screen [3]: not seen in the gel-based assay

CC(NC(=O)CCC(=O)Nc1ccccc1O)c1ccccc1 (stereo not shown) [Compound 7]
inhibition at 10 µM [1, 9]: > 25%
inhibition at 100 µM [1, 10]: > 50%

Cc1cc(C(=O)O)ccc1-c1ccc(/C=C2\SC(=O)N(CC(=O)N3CCCCC3)C2=O)o1 [Compound 40e]
inhibition of norovirus Sydney 2012 RdRp activity [1, 6]: abolished the activity

O=C(CN1C(=O)S/C(=C\c2ccc(-c3ccccc3)o2)C1=O)N1CCOCC1 [Compound 23a]
inhibition of norovirus Sydney 2012 RdRp activity [1, 6]: complete loss of activity

O=C(C1=C(O)C(=O)N(Cc2ccco2)C1c1cccc(O)c1)c1ccc2c(c1)OCCO2 (stereo not shown) [Compound 8]
inhibition at 10 µM [1, 9]: > 25%
inhibition at 100 µM [1, 10]: > 25%

O=C(CN1C(=O)S/C(=C\c2ccc(-c3ccccc3)o2)C1=O)Nc1ccccc1 [Compound 42a]
inhibition at 100 µM [5]: 44.4%
inhibition of MNV RdRp activity ([5]; 100 µM): < 50%
IC50 [1]: 27.4 µM
inhibition of primed elongation activity (gel-shift) [3]: near complete abolishment of norovirus RdRp activity

Cc1ccccc1-c1ccc(/C=C2\SC(=O)N(CC(=O)N3CCCCC3)C2=O)o1 [Compound 24c]
inhibition of norovirus Sydney 2012 RdRp activity [1, 6]: loss of inhibitory activity

O=C1NC(=O)/C(=C/c2ccc(-c3ccccc3)o2)S1 [Compound 18a]
inhibition of norovirus Sydney 2012 RdRp activity [1, 6]: lacked RdRp inhibitory activity

COC(=O)c1ccc(-c2ccc(/C=C3\SC(=O)N(CC(=O)N4CCOCC4)C3=O)o2)cc1 [Compound 23b]
inhibition of norovirus Sydney 2012 RdRp activity [1, 6]: complete loss of activity

COc1ccc(N2C(=O)c3ccc(C(=O)O)cc3C2=O)cc1NC(=O)c1ccccc1 [Compound 9]
inhibition at 10 µM [1, 9]: > 25%
inhibition at 100 µM [1, 10]: > 50%

Cc1cc(C(=O)O)ccc1-c1ccc(/C=C2\SC(=O)N(CC(=O)N3CCOCC3)C2=O)o1 [Compound 13]
IC50 [1]: 15 µM
inhibition at 10 µM [1, 9]: > 25%
inhibition at 100 µM [1, 10]: > 50%
inhibition at 10 µM [1, 8]: 25%
inhibition at 100 µM ([4]; 100 µM, read-out: inhibition of MNV plaque formation): 21%
inhibition of primed elongation activity (gel-shift) [3]: complete inhibition

COC(=O)c1ccc(-c2ccc(/C=C3\SC(=O)N(CC(=O)Nc4ccccc4)C3=O)o2)cc1 [Compound 42b]
solubility (observation) [2]: significant solubility issues
inhibition at 10 µM [1, 8]: > 50%
inhibition of primed elongation activity (gel-shift) [3]: near complete abolishment of norovirus RdRp activity

O=C1NC(=O)/C(=C/c2ccc(-c3ccc(C(=O)O)cc3)o2)S1 [Compound 27]
inhibition of norovirus Sydney 2012 RdRp activity [1, 6]: lacked RdRp inhibitory activity

Cc1ccccc1-c1ccc(/C=C2\SC(=O)NC2=O)o1 [Compound 18c]
inhibition of norovirus Sydney 2012 RdRp activity [1, 6]: lacked RdRp inhibitory activity

Cc1ccc(NC(=O)CSc2n[nH]c(-c3ccccc3O)n2)c(C)c1 [Compound 10]
inhibition at 10 µM [1, 9]: > 25%
inhibition at 100 µM [1, 10]: > 25%

COC(=O)c1ccc(-c2ccc(/C=C3\SC(=O)N(CC(=O)N4CCOCC4)C3=O)o2)c(C)c1 [Compound 39d]
inhibition of norovirus Sydney 2012 RdRp activity [1, 6]: complete loss of activity

COC(=O)c1ccc(-c2ccc(/C=C3\SC(=O)N(CC(=O)N4CCCCC4)C3=O)o2)cc1 [Compound 24b]
inhibition at 10 µM [1, 8]: 60%
inhibition of primed elongation activity (gel-shift) [3]: no appreciable effect

C/C(=N\NC(=O)c1ccccc1O)c1ccc(O)cc1O [Compound 12]
inhibition at 10 µM [1, 9]: > 25%
inhibition at 100 µM [1, 10]: > 25%

COc1cccc(NC(=O)Cn2nc(C(F)(F)F)cc2C2CC2)c1 [AK-968/41925073]
solubility (observation) [2]: precipitated heavily in 100% DMSO
inhibition of human norovirus RdRp activity [1, 11]: over 25%
inhibition of human norovirus RdRp activity [1, 7]: over 25%

Cc1ccc(N2NC(=O)/C(=C\c3ccc(-c4ccc(S(=O)(=O)Nc5ccccc5)cc4)o3)C2=O)cc1 [Compound 55]
inhibition of primed elongation activity (gel-shift) [3]: minimal inhibition
